Patent US9006442B2, “Cannabinoid receptor modulators” (Lupin Limited, priority 2011, dated 2015)

These molecules were tested against hCB2 (Homo sapiens, UniProt P34972) (assay: cAMP determination in functional hCB2-CHO stable cells (HTRF)). Conditions: not given.
Type: cell-based
Experimental: In-Vitro Assay Method for Determination of cAMP in Functional hCB2—CHO Stable Cells:
Recombinant CHO-hCB2 cells (procured from Perkin Elmer Inc. USA) were propagated and maintained in Ham's F-12 complete medium containing 10% heat inactivated FBS (Sigma.UK) and 1× penstrep. For assay, 0.1×10^6 to 1.0×10^6 CHO-hCB2 cells were seeded in T-25 flask and grown to mid-log phase in culture media without antibiotics for 2-3 days. […] The test is performed in 96^1/2 area black well plates. For agonist testing, 20 μl cells/well were mixed with 20 μl of sample and 10 μl of forskolin (with final concentration of 10 μM) and incubated for 20 to 40 min at room temperature in incubator. The plate was then processed for the cAMP determination using cAMP Femto-2 HTRF kit (Cisbio, Germany) as per the manual.
The concentration of compound required to stimulate a half-maximal response (EC50) was determined using the GraphPad Prism software (version 5).

Sequence of hCB2 (P34972 whole entry): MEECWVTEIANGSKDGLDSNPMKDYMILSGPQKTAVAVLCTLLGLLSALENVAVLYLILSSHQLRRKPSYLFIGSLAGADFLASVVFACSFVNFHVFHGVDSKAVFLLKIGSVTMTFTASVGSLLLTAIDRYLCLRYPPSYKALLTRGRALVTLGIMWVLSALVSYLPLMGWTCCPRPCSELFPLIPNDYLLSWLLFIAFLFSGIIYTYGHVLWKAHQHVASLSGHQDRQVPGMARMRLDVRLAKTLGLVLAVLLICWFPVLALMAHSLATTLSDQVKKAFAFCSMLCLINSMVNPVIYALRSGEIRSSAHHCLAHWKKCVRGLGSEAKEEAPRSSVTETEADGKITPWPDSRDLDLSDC

| SMILES | EC50 |
| --- | --- |
| Cc1cccc2c(Nc3cccc(CF)c3)ncc(C(=O)N3CCOCC3)c12 [Example-12, (1-(((3-Fluoromethyl)phenyl)amino)-5-methylisoquinolin-4-yl)(morpholino)methanone] | 10 to 1000 nM |
| Cc1cccc2c(Nc3cccc(F)c3)ncc(C(=O)N3CCCCC3)c12 [Example-21, (1-((3-Fluorophenyl)amino)-5-methylisoquinolin-4-yl)(piperidino)methanone] | < 10 nM |
| Cc1cccc2c(Nc3cccc(C(F)(F)F)c3)ncc(C(=O)N3CCCCC3)c12 [Example-23, (5-Methyl-1-(((3-trifluoromethyl)phenyl)amino)isoquinolin-4-yl)(piperidin-1-yl)methanone] | < 10 nM |
| Cc1cccc2c(Nc3ccc(F)c(C(F)(F)F)c3)ncc(C(=O)N3CCCCC3)c12 [Example-27, (1-((4-Fluoro-3-(trifluoromethyl)phenyl)amino)-5-methylisoquinolin-4-yl)(piperidin-1-yl)methanone] | < 10 nM |
| Cc1cccc2c(Nc3ccc(F)c(Cl)c3)ncc(C(=O)N3CC4CC(C3)O4)c12 [Example-60, 6-Oxa-3-azabicyclo[3.1.1]heptan-3-yl(1-((3-chloro-4-fluorophenyl)amino)-5-methylisoquinolin-4-yl)methanone] | 10 to 1000 nM |
| Cc1cccc2c(Nc3cccc(Cl)c3F)ncc(C(=O)N3CC4CC(C3)O4)c12 [Example-61, 6-Oxa-3-azabicyclo[3.1.1]heptan-3-yl(1-((3-chloro-2-fluorophenyl)amino)-5-methylisoquinolin-4-yl)methanone] | < 10 nM |
| Cc1c(Cl)cccc1Nc1ncc(C(=O)N2CC3CC(C2)O3)c2c(C)cccc12 [Example-65, 6-Oxa-3-azabicyclo[3.1.1]heptan-3-yl(1-((3-chloro-2-methylphenyl)amino)-5-methylisoquinolin-4-yl)methanone] | < 10 nM |
| Cc1cccc2c(Nc3cccc(Cl)c3)ncc(C(=O)N3CC4CC4C3)c12 (stereo not drawn) [Example-75, 3-Azabicyclo[3.1.0]hexan-3-yl(1-((3-chlorophenyl)amino)-5-methylisoquinolin-4-yl)methanone] | < 10 nM |
| Cc1c(Cl)cccc1Nc1ncc(C(=O)N2CCOCC2)c2c(C)cccc12 [Example-87, (1-((3-Chloro-2-methylphenyl)amino)-5-methylisoquinolin-4-yl)(morpholino)methanone] | < 10 nM |
| Cc1ccc(Nc2ncc(C(=O)N3CCCCC3)c3c(C)cccc23)cc1Cl [Example-92, (1-((3-Chloro-4-methylphenyl)amino)-5-methylisoquinolin-4-yl)(piperidin-1-yl)methanone] | < 10 nM |
| Cc1cc(Nc2ncc(C(=O)N3CCCCC3)c3c(C)cccc23)ccc1F [Example-94, (1-((4-Fluoro-3-methylphenyl)amino)-5-methylisoquinolin-4-yl)(piperidin-1-yl)methanone] | < 10 nM |
| Cc1c(F)cccc1Nc1ncc(C(=O)N2CCCCC2)c2c(C)cccc12 [Example-96, (1-((3-Fluoro-2-methylphenyl)amino)-5-methylisoquinolin-4-yl)(piperidin-1-yl)methanone] | < 10 nM |
| Cc1cccc2c(Nc3cccc(Cl)c3)ncc(C(=O)N3CCCC3)c12 [Example-102, (1-((3-Chlorophenyl)amino)-5-methylisoquinolin-4-yl)(pyrrolidin-1-yl)methanone] | 10 to 1000 nM |
| O=C(c1cnc(Nc2cccc(Cl)c2)c2cccc(C3CC3)c12)N1CCOCC1 [Example-114, (1-((3-Chlorophenyl)amino)-5-cyclopropylisoquinolin-4-yl)(morpholino)methanone] | < 10 nM |
| O=C(c1cnc(Nc2cccc(C(F)(F)F)c2)c2cccc(C3CC3)c12)N1CCOCC1 [Example-118, (5-Cyclopropyl-1-((3-(trifluoromethyl)phenyl)amino)isoquinolin-4-yl)(morpholino)methanone] | < 10 nM |
| CCc1cccc2c(Nc3cccc(Cl)c3F)ncc(C(=O)N3CCCCC3)c12 [Example-128, (1-((3-Chloro-2-fluorophenyl)amino)-5-ethylisoquinolin-4-yl)(piperidin-1-yl)methanone] | < 10 nM |
| Cc1ccc(Nc2ccc(C(=O)N3CCOCC3)c3c(C)cccc23)cc1F [Example-152, (4-((3-Fluoro-4-methylphenyl)amino)-8-methylnaphthalen-1-yl)(morpholino)methanone] | < 10 nM |

Same assay, conditions: CHO-hCB2 cells, cAMP, forskolin 10 μM, agonist testing; read-out: EC50 Range

| EC50 | SMILES |
| --- | --- |
| < 10 nM | Cc1cccc2c(Nc3cc(F)ccc3F)ncc(C(=O)N3CCCCC3)c12 [Example-34, (1-((2,5-Difluorophenyl)amino)-5-methylisoquinolin-4-yl)(piperidin-1-yl)methanone] |
| < 10 nM | Cc1cccc2c(Nc3cccc(CF)c3)ncc(C(=O)N3CCCCC3)c12 [Example-37, (1-((3-(Fluoromethyl)phenyl)amino)-5-methylisoquinolin-4-yl)(piperidin-1-yl)methanone] |
| < 10 nM | Cc1c(F)cccc1Nc1ncc(C(=O)N2CC3CC3C2)c2c(C)cccc12 (stereo not drawn) [Example-77, 3-Azabicyclo[3.1.0]hexan-3-yl(1-((3-fluoro-2-methylphenyl)amino)-5-methylisoquinolin-4-yl)methanone] |
| < 10 nM | Cc1cc(Nc2ncc(C(=O)N3CCOCC3)c3c(C)cccc23)ccc1F [Example-85, (1-((4-Fluoro-3-methylphenyl)amino)-5-methylisoquinolin-4-yl)(morpholino)methanone] |
| < 10 nM | Cc1ccc(Cl)cc1Nc1ncc(C(=O)N2CCOCC2)c2c(C)cccc12 [Example-88, (1-((5-Chloro-2-methylphenyl)amino)-5-methylisoquinolin-4-yl)(morpholino)methanone] |
| < 10 nM | Cc1cccc2c(Nc3ccc(Cl)cc3Cl)ncc(C(=O)N3CCOCC3)c12 [Example-90, (1-((2,4-Dichlorophenyl)amino)-5-methylisoquinolin-4-yl)(morpholino)methanone] |
| < 10 nM | O=C(c1cnc(Nc2cccc(F)c2F)c2cccc(C3CC3)c12)N1CCOCC1 [Example-116] |
| < 10 nM | O=C(c1cnc(Nc2cccc(C(F)(F)F)c2F)c2cccc(C3CC3)c12)N1CCOCC1 [Example-119, (5-Cyclopropyl-1-((2-fluoro-3-(trifluoromethyl)phenyl)amino)isoquinolin-4-yl)(morpholino)methanone] |
| < 10 nM | CCc1cccc2c(Nc3cccc(F)c3F)ncc(C(=O)N3CCCCC3)c12 [Example-124, (1-((2,3-Difluorophenyl)amino)-5-ethylisoquinolin-4-yl)(piperidin-1-yl)methanone] |
| < 10 nM | CCc1cccc2c(Nc3cccc(C(F)(F)F)c3F)ncc(C(=O)N3CCCCC3)c12 [Example-129, (5-Ethyl-1-((2-Fluoro-3-(trifluoromethyl)phenyl)amino)isoquinolin-4-yl)(piperidin-1-yl)methanone] |
| < 10 nM | CCc1cccc2c(Nc3cccc(Cl)c3C)ncc(C(=O)N3CCCCC3)c12 [Example-131, (1-((3-Chloro-2-methylphenyl)amino)-5-ethylisoquinolin-4-yl)(piperidin-1-yl)methanone] |
| < 10 nM | Cc1cccc(Nc2ccc(C(=O)N3CCOCC3)c3c(C)cccc23)c1 [Example-150, (8-Methyl-4-(m-tolylamino)naphthalen-1-yl)(morpholino)methanone] |
| < 10 nM | COc1cccc(Nc2ccc(C(=O)N3CCCCC3)c3c(C)cccc23)c1 [Example-161, (4-((3-Methoxyphenyl)amino)-8-methylnaphthalen-1-yl)(piperidin-1-yl)methanone] |
| < 10 nM | Cc1cccc2c(Nc3cccc(F)c3F)ccc(C(=O)N3CC4CC4C3)c12 (stereo not drawn) [Example-166, 3-Azabicyclo[3.1.0]hexan-3-yl(4-((2,3-difluorophenyl)amino)-8-methylnaphthalen-1-yl)methanone] |

The next lines start with the molecule.

| SMILES | EC50 |
| --- | --- |
| Cc1cccc2c(Nc3cc(F)cc(F)c3)ncc(C(=O)N3CCOCC3)c12 [Example-3, (1-((3,5-Difluorophenyl)amino)-5-methylisoquinolin-4-yl)(morpholino)methanone] | < 10 nM |
| Cc1cccc2c(Nc3ccc(F)cc3)ncc(C(=O)N3CCOCC3)c12 [Example-5, (1-((4-Fluorophenyl)amino)-5-methylisoquinolin-4-yl)(morpholino)methanone] | 10 to 1000 nM |
| Cc1cccc2c(Nc3ccc(F)c(C(F)(F)F)c3)ncc(C(=O)N3CCOCC3)c12 [Example-6, (1-((4-Fluoro-3-(trifluoromethyl)phenyl)amino)-5-methylisoquinolin-4-yl)(morpholino)methanone] | < 10 nM |
| Cc1cccc2c(Nc3ccc(F)cc3F)ncc(C(=O)N3CCOCC3)c12 [Example-7, (1-((2,4-Difluorophenyl)amino)-5-methylisoquinolin-4-yl)(morpholino)methanone] | 10 to 1000 nM |
| Cc1cccc2c(Nc3cc(F)cc(F)c3)ncc(C(=O)N3CCCCC3)c12 [Example-24, (1-((3,5-Difluorophenyl)amino)-5-methylisoquinolin-4-yl)(piperidin-1-yl)methanone] | < 10 nM |
| Cc1cccc2c(Nc3cc(F)c(F)cc3F)ncc(C(=O)N3CCCCC3)c12 [Example-28, (1-((2,4,5-Trifluorophenyl)amino)-5-methylisoquinolin-4-yl)(piperidin-1-yl)methanone] | < 10 nM |
| Cc1cccc2c(Nc3ccc(F)cc3F)ncc(C(=O)N3CCCCC3)c12 [Example-29, (1-((2,4-Difluorophenyl)amino)-5-methylisoquinolin-4-yl)(piperidin-1-yl)methanone] | < 10 nM |
| Cc1cccc2c(Nc3cccc(F)c3F)ncc(C(=O)N3CCCCC3)c12 [Example-33, (1-((2,3-Difluorophenyl)amino)-5-methylisoquinolin-4-yl)(piperidin-1-yl)methanone] | < 10 nM |
